Tests used:
[1] = tested on: RNA 1 (RNA, riboswitch) GGCUGCUUGUCCUUUAAUGGUCCAGUC; assay: native ESI MS; conditions: 9:1 H2O/CH3OH, 0.25 mM piperazine
[2] = tested on: RNA 4 (RNA, riboswitch) CCCUGAUAGCUUGUCCUUUAAUGGUCCUAUCUGGAAAAUG; assay: competitive native ESI MS; conditions: NH4+ 50 mM (ammonium bicarbonate); 9:1 H2O/CH3OH, 0.25 mM piperazine, pH ~7.5, 21 °C; RNA 1 as competing reference; overall, motifs A and B
[3] = tested on: RNA 2 (RNA, riboswitch) CCGGCAUAGCUUGUCCUUUAAUGGUCCUAUGUCGAAAAUG; assay: competitive native ESI MS; conditions: NH4+ 50 mM (ammonium bicarbonate); 9:1 H2O/CH3OH, 0.25 mM piperazine, pH ~7.5, 21 °C; RNA 1 as competing reference; overall, motifs A and B
[4] = tested on: RNA 1 (RNA, riboswitch) GGCUGCUUGUCCUUUAAUGGUCCAGUC; assay: ITC; conditions: K+ 100 mM (KCl), Mg2+ 2 mM (MgCl2); 50 mM MOPS, pH 7.5, 21 °C; two-site fit, site 1 of 2
[5] = tested on: RNA 2 (RNA, riboswitch) CCGGCAUAGCUUGUCCUUUAAUGGUCCUAUGUCGAAAAUG; assay: ITC; conditions: K+ 100 mM (KCl), Mg2+ 2 mM (MgCl2); 50 mM MOPS, pH 7.5, 21 °C; two-site fit, site 1 of 2
[6] = tested on: RNA 3 (RNA, riboswitch) CCGUCAUAGCUUGUCCUUUAAUGGUCCUAUGACGAAAAUG; assay: competitive native ESI MS; conditions: NH4+ 50 mM (ammonium bicarbonate); 9:1 H2O/CH3OH, 0.25 mM piperazine, pH ~7.5, 21 °C; RNA 1 as competing reference; overall, motifs A and B

| KD ([1]; NH4+ 50 mM (ammonium bicarbonate), pH 7.5, 21 °C, single-site model) [nM] | KD [2] [nM] | KD [3] [nM] | KD [4] [nM] | KD [5] [nM] | KD [6] [nM] | KD ([1]; none added, pH ~6, room temperature, 1 μM RNA, 10 μM paromomycin) [nM] | Compound |
| --- | --- | --- | --- | --- | --- | --- | --- |
| 700 ± 200 | 500 ± 200 | 500 ± 200 | 2 ± 2 | 400 ± 600 | 500 ± 200 |  | NC[C@@H]1O[C@H](O[C@H]2[C@@H](O)[C@H](O[C@@H]3[C@@H](O)[C@H](N)C[C@H](N)[C@H]3O[C@H]3O[C@H](CN)[C@@H](O)[C@H](O)[C@H]3N)O[C@@H]2CO)[C@H](N)[C@@H](O)[C@@H]1O |
|  |  |  |  |  |  | 4600 ± 1400 | NC[C@@H]1O[C@H](O[C@H]2[C@@H](O)[C@H](O[C@@H]3[C@@H](O)[C@H](N)C[C@H](N)[C@H]3O[C@H]3O[C@H](CO)[C@@H](O)[C@H](O)[C@H]3N)O[C@@H]2CO)[C@H](N)[C@@H](O)[C@@H]1O |
